# Experimental data as given in EPA's ToxValDB 9.5.
# Legend:
# Sus scrofa = conditions: subchronic, oral, diet, M/F, Not specified
# Rattus norvegicus = conditions: for LD50: acute
# Anas platyrhynchos = conditions: short-term; oral; feed; mortality
# Oncorhynchus mykiss = conditions: acute, mortality
# Colinus virginianus = conditions: for LD50 / LC50: acute
# Daphnia magna = conditions: acute; duration: 48 hours; mortality
# Canidae = conditions: Dog Other; for NOAEL: oral
# Pontoscolex corethrurus = conditions: acute; mortality
# Mus musculus = conditions: organ weight
# Bovidae = conditions: subchronic; duration: 57 days; oral; diet; no effects
# Gallus gallus = conditions: subchronic, oral, diet
# [1] = chronic, duration: 2 years, oral, diet
# [2] = short-term, duration: 28 days, mortality
compound,measurement,setting,value
COC(=O)[C@H](Cc1ccccc1)NC(=O)[C@H](CC(=O)O)NCCCc1ccc(OC)c(O)c1.O,NOAEL,"Oryctolagus sp.; reproduction developmental, duration: 22 days, oral, gavage, F, New Zealand, clinical signs",500 mg/kg-day
Cc1ccc(C(C)C)cc1O [Isopropyl-o-cresol],LEL,"Sus scrofa; duration: 6 weeks, no effects",2000 mg/kg-day
CS(=O)(=O)c1cc(C(F)(F)F)ccc1C(=O)c1cnoc1C1CC1 [Isoxaflutole],NOAEL,"Oryctolagus sp.; developmental, development",5 mg/kg-day
same,NOAEL,"Rattus norvegicus; chronic, duration: 2 years, histopathology: nonneoplastic",2 mg/kg-day
same,NOAEL,"Rattus norvegicus; reproduction developmental, organ weight",2 mg/kg-day
CSCc1ccsc1 [3-(Methylthio)methylthiophene],NOAEL,"Rattus norvegicus; subchronic, duration: 90 days",0.29 mg/kg-day
same,NOAEL,repeat dose other,0.29 mg/kg-day
c1ccc(Nc2ccccc2)cc1 [Diphenylamine],LC50,Anas platyrhynchos,2290 mg/kg-day
same,LC50,Oncorhynchus mykiss; duration: 96 hours,2.2 µg/mL
same,NOEC,Oncorhynchus mykiss; duration: 96 hours,0.71 mg/L
same,LD50,"Colinus virginianus; oral, mortality",> 2250 mg/kg-day
same,NOEC,Daphnia magna,< 0.38 mg/L
same,NOAEL,"Rattus norvegicus; chronic, duration: 2 years, hematological",7.5 mg/kg-day
same,NOAEL,"Rattus norvegicus; subchronic, duration: 90 days, oral, clinical chemistry",9.6 mg/kg-day
same,NOAEL,"Rattus norvegicus; subchronic, duration: 90 days, oral, hematological",9.6 mg/kg-day
same,NOAEL,"Canidae; chronic, duration: 1 years, clinical chemistry",10 mg/kg-day
same,NOAEL,"Canidae; chronic, duration: 1 years, hematological",10 mg/kg-day
same,NOAEL,"Canidae; subchronic, duration: 90 days, clinical chemistry",10 mg/kg-day
same,NOAEL,"Canidae; subchronic, duration: 90 days, hematological",10 mg/kg-day
Cc1cccc2nccnc12 [5-Methylquinoxaline],LC50,Pontoscolex corethrurus,272 mg/kg
CN1CCCC1 [N-Methylpyrrolidine],NOAEL,Rattus norvegicus; [1],50 mg/kg-day
same,NOAEL,Rattus norvegicus; [2],50 mg/kg-day
same,NOAEL,reproduction developmental,50 mg/kg-day
CC(C)C1C2CCC1c1c(NC(=O)c3cn(C)nc3C(F)F)cccc12 (stereo not drawn) [Isopyrazam],LC50,"Colinus virginianus; oral, diet, mortality",1310 mg/kg-day
same,LD50,"Colinus virginianus; oral, mortality",> 2000 mg/kg-day
same,NOEC,Colinus virginianus; reproduction developmental,32.5 mg/kg-day
same,LD50,"Rattus norvegicus; oral, mortality",2000 mg/kg-day
same,NOEL,Rattus norvegicus; chronic,41 mg/kg-day
same,LOAEL,"Rattus norvegicus; chronic, duration: 2 years, organ weight",5.5 mg/kg-day
same,NOAEL,"Rattus norvegicus; developmental, development",20 mg/kg-day
same,NOAEL,"Rattus norvegicus; reproduction developmental, duration: 2 years, body weight",8 mg/kg-day
"Nc1ccc(Cl)c(Cl)c1 [3,4-Dichloroaniline]",LD50,"Colinus virginianus; oral, mortality",99.1 mg/kg-day
CCOc1ccc2c(c1)C(C)=CC(C)(C)N2 [Ethoxyquin],LC50,Oncorhynchus mykiss; duration: 96 hours,18 µg/mL
same,LC50,"Colinus virginianus; oral, diet, mortality",> 2420 mg/kg-day
same,NOEC,"Colinus virginianus; short-term, oral, diet",1500 mg/kg-day
same,LD50,"Rattus norvegicus; oral, mortality",1730 mg/kg-day
same,NOEL,"Canidae; subchronic, duration: 90 days, clinical signs",2 mg/kg-day
CC(O)(Cn1cncn1)c1ccc(Oc2ccc(Cl)cc2)cc1C(F)(F)F (stereo not drawn) [Mefentrifluconazole],NOAEL,"Oryctolagus sp.; developmental, development",15 mg/kg-day
same,NOAEL,"Mus musculus; chronic, duration: 18 months",3.5 mg/kg-day
same,NOAEL,"Mus musculus; subchronic, duration: 90 days",2 mg/kg-day
"c1cnc2c(n1)CCCC2 [5,6,7,8-Tetrahydroquinoxaline]",LC50,Pontoscolex corethrurus,238 mg/kg
CCCC(CCC)C(=O)O [Valproic acid],NOAEL,"repeat dose other, development",600 mg/kg-day
CSCCC(O)C(=O)[O-].CSCCC(O)C(=O)[O-].[Zn+2] (stereo not drawn),LEL,Bovidae,450 mg/kg-day
same,LEL,"Gallus gallus; duration: 8 weeks, clinical chemistry",450 mg/kg-day
same,LEL,"Gallus gallus; duration: 35 days, Chicken, body weight",450 mg/kg-day
same,LEL,"Sus scrofa; duration: 42 days, body weight",450 mg/kg-day
"CCc1nc(C)cs1 [Thiazole, 2-ethyl-4-methyl-]",LC50,Pontoscolex corethrurus,193 mg/kg
CCO [Ethanol],LC50,Oncorhynchus mykiss; duration: 24 hours,11200 µg/mL
same,NOAEL,"Rattus norvegicus; subchronic, duration: 90 days, oral, gavage, organ weight",1730 mg/kg-day
COc1cc(CCC(C)=O)ccc1O [4-(4-Hydroxy-3-methoxyphenyl)-2-butanone],LC50,Pontoscolex corethrurus,346 mg/kg
CCCSP(=O)(OCC)SCCC [Ethoprop],NOEL,"Colinus virginianus; reproduction developmental, mortality",0.088 mg/kg-day
same,NOEL,Rattus norvegicus; chronic,7.3 mg/kg-day
CC(O)C(=O)[O-].CC(O)C(=O)[O-].[Ca+2] (stereo not drawn) [Calcium lactate],LEL,"Gallus gallus; duration: 42 days, Chicken, no effects",30000 mg/kg-day
"CCCCCCCCCCCCN(C)C [N,N-Dimethyldodecan-1-amine]",NOAEL,Rattus norvegicus; [1],50 mg/kg-day
same,NOAEL,Rattus norvegicus; [2],50 mg/kg-day
same,NOAEL,reproduction developmental,50 mg/kg-day
O=C(O)C(O)Cn1cncn1 (stereo not drawn) [Triazole lactic acid],NOAEL,"Oryctolagus sp.; developmental, development",30 mg/kg-day
"CCc1ncc(C)nc1CC [Pyrazine, 2,3-diethyl-5-methyl-]",LC50,Pontoscolex corethrurus,228 mg/kg
